Assay [1] has as its system TLR2. Briefly: Surface plasmon resonance, immobilized TLR2. The note with it: Biacore X100, CM5 chip, PBS containing 0.05% Tween 20; 0, 1.25, 2.5, 5, and 10 mM. In kind it is binding. On the procedure:
Surface plasmon resonance (SPR) experiments were carried out using a Biacore X100 instrument (GE Healthcare, Pittsburgh, PA, United States) by standard amine coupling. TLR2 (R&D Systems, Minneapolis, MN, United States) was amine-coupled to a Biacore CM5 sensor chip (Bio-Rad). The peptide was diluted to varying concentrations (0, 1.25, 2.5, 5, and 10 mM) in running buffer (PBS containing 0.05% Tween 20) and run sequentially over immobilized TLR2. Binding curves were processed for the initial injection alignment and baseline, and a reference-subtracted sensorgram was globally fitted to the curves to describe a homogeneous 1:1 model. Data analysis was conducted using ProteOn manager software (version 2.0). Data from the protein surfaces were grouped together to fit the association kinetic rate constant (Ka) and the dissociation rate constant (Kd). The equilibrium dissociation constant (KD) for the peptide-TLR2 interaction was calculated as follows: […]
Background: In SPR one partner is held on a chip, and binding of the other changes the refractive index at the surface.

The subject of assay [2] is TLR2, RAW264.7 cells. As to the kind of experiment: Cell surface TLR2 cluster formation by confocal laser-scanning microscopy. In kind it is cell-based, mouse. The note with it: LTPa 10 μg/mL, 1 h, 37°C; clusters = fluorescence > 40 arbitrary units; three independent experiments. On the procedure: RAW264.7 cells were treated with or without 10 μg/mL LTPa for 1 h at 37°C. The cells were then incubated (30 min, on ice) with anti-mouse monoclonal antibody TLR2 or isotype control (IgG) (eBioscience) before washing with PBS. Then, the cells were stained with a FITC–conjugated anti-mouse IgG antibody for 30 min on ice (Jackson Laboratories). After washing with PBS and fixing with paraformaldehyde, the cell nuclei were stained with DAPI (1:500 dilution in PBS) (Sigma-Aldrich). The cells were then imaged with the Leica TCS SP5 confocal system (Leica Microsystems Ltd.). LAS AF software was used to process the images and quantify the fluorescence. In addition, to generate a fluorescence histogram profile, a line was drawn along the cell surface. Fluorescence intensities higher than 40 arbitrary units (isotype control staining) were considered clusters of TLR2 molecules.

In assay [3] the test system is MHC class II, mouse PBMCs. As to the kind of experiment: DC maturation: MHC-II expression by flow cytometry. It is filed as in vivo, BALB/c mice. To be noted: CTX 80 mg/kg i.p. 3 days; peptide 10 mg/kg i.p. days 4-10; three biological replicates. The protocol:
(§1) After a 7-day adaptation period, the mice were randomly divided into five groups (n = 12 in each group): (1) control group: physiological saline was injected intraperitoneally once daily; (2) cyclophosphamide (CTX) group: CTX (80 mg/kg mouse weight; Sigma-Aldrich, St. Louis, MO, United States) was injected intraperitoneally once daily for the first 3 days. […] From days 4 to 10, peptide (10 mg/kg mouse weight) was injected intraperitoneally into mice once daily. Twenty-four hours after the last drug administration, all the mice were weighed and then euthanized, and their tissues and blood were collected for further study. The body weight index was calculated according to the formula: […]
Mouse peripheral blood mononuclear cells (PBMCs) were obtained from the different groups of mice through Ficoll density gradient centrifugation. The cells were resuspended in PBS with 5% FBS and incubated with 10% (v/v) normal goat serum for 15 min at 4°C. The cells were combined with FITC-conjugated antibodies specific for MHC class II (MHC-II; BD Pharmingen, United States). The surface expression of MHC-II was determined by flow cytometry.
In general terms: A flow cytometer gives signals particle by particle.

The subject of assay [4] is T lymphocyte subpopulations (CD4 +, CD8 +), mouse peripheral blood. Briefly: Peripheral blood T lymphocyte subpopulations by flow cytometry. The note with it: CTX 80 mg/kg i.p. 3 days; peptide 10 mg/kg i.p. days 4-10; three biological replicates. It is filed as in vivo, BALB/c mice. On the procedure:
as §1
Erythrocytes were aseptically obtained from the different groups of mouse peripheral blood and lysed with RBC lysis buffer. The remaining cells were washed with PBS and resuspended in PBS. The cells were combined with peridinin-chlorophyll-protein complex (PerCP)-conjugated anti-mouse CD3 +, allophycocyanin (APC)-conjugated anti-mouse CD4 +, and fluorescein isothiocyanate (FITC)-conjugated anti-mouse CD8 + (BD Pharmingen, United States) for 30 min at 4°C. The T lymphocyte subpopulations were analyzed by flow cytometry.

Assay [5] has as its system serum IgA, IgG, and IgM. As to the kind of experiment: Serum immunoglobulins by ELISA in CTX-treated mice. It is filed as in vivo, BALB/c mice. The note with it: CTX 80 mg/kg i.p. 3 days, peptide 10 mg/kg i.p. days 4-10, three biological replicates. On the procedure: as §1
(§2) Serum was collected from blood and then assayed by ELISA kits according to the protocol supplied by the manufacturer (eBioscience, San Diego, United States) to determine the secretion of IgG, IgA, IgM, TNF-α, IL-6, and IL-1β.
Background: ELISA stands for enzyme-linked immunosorbent assay.

Assay [6] has as its system serum TNF-α, IL-6, and IL-1β. Briefly: Serum cytokines by ELISA in CTX-treated mice. It is filed as in vivo, BALB/c mice. To be noted: CTX 80 mg/kg i.p. 3 days, peptide 10 mg/kg i.p. days 4-10, three biological replicates. The protocol:
as §1, §2

For assay [7], the system named is RAW264.7 cells. Briefly: In vitro immunomodulatory activity: cytokine secretion by RAW264.7 cells (ELISA). To be noted: 10 μg/mL, 12 h. It is filed as cell-based, murine. The protocol: RAW264.7 cells were seeded at a density of 1.0 × 10^6 cell/mL and treated with (10 μg/mL) or without peptides in each well of a 6-well plate for 12 h at 37°C in a humidified incubator with 5% CO2. After treatment, TNF-α, IL-6 and IL-1β secretion in the cell supernatants was assessed using ELISA kits according to the manufacturer’s instructions.

For assay [8], the system named is TLR2, RAW264.7 cells. As to the kind of experiment: TLR2 blocking experiment (anti-mouse TLR2 C9A12, then LTPa). It is filed as cell-based. The note with it: LTPa 10 μg/mL, 24 h; with or without TLR2 mAb (C9A12) 1 h before; ELISA. The protocol: For TLR2 blocking experiments, RAW264.7 cells were cultured in 24-well plates overnight at 37°C. The mouse IgG2a isotype control antibody or anti-mouse TLR2 (C9A12; InvivoGen, San Diego, CA, United States) was added to the cell cultures 1 h before being treated with LTPa for 24 h at 37°C. Then, the levels of TNF-α, IL-6, and IL-1β in the culture supernatant were analyzed.

Assay [9] has as its system CTX-immunosuppressed murine model. As to the kind of experiment: Body weight and immune organ indices in CTX-immunosuppressed mice. The note with it: CTX 80 mg/kg i.p. 3 days, peptide 10 mg/kg i.p. days 4-10, n = 12. In kind it is in vivo, BALB/c mice. On the procedure: BALB/c mice (female, 6–8 weeks; Charles River, Beijing, China) used in this study were maintained in a specific-pathogen-free facility (55 ± 10% humidity and 22 ± 1°C) during the experiments. These experiments were conducted with approval from the Institutional Animal Care and Use Committee of China Agricultural University (certificate of the Beijing Laboratory Animal employee, ID: 18086).
After a 7-day adaptation period, the mice were randomly divided into five groups (n = 12 in each group): (1) control group: physiological saline was injected intraperitoneally once daily; (2) cyclophosphamide (CTX) group: CTX (80 mg/kg mouse weight; Sigma-Aldrich, St. Louis, MO, United States) was injected intraperitoneally once daily for the first 3 days. […] From days 4 to 10, peptide (10 mg/kg mouse weight) was injected intraperitoneally into mice once daily. Twenty-four hours after the last drug administration, all the mice were weighed and then euthanized, and their tissues and blood were collected for further study. The body weight index was calculated according to the formula:
Index(%)=finalbodyweight-initalbodyweight/initialbodyweight×100
The thymus and spleen indices were measured by the following formula:
Index(mg/g)=weightofthymusorspleen/bodyweight

Where [10] appears, read: 37°C, ELISA, three independent experiments.

Entries after “also recorded” stand apart in the source; their conditions may differ.

For “IGKEFKRIVQRIKDFLRNLVPRTERKDVT [LTPa, hybrid peptide combining LL-37a and TP5]”, in assay [1], the “binding to TLR2 (SPR)” value is on record as “could effectively bind to the TLR2”. Besides, the “TLR2 clusters per micrometer on the cell surface” value in assay [2] is reported as “significantly increased the number of major TLR2 clusters per micrometer on the cell surface”. Also, in assay [3], the “expression of MHC-II” value is “increased by LTPa treatment; also recorded: significantly higher than that in the LL-37-treated and TP5-treated groups”. In addition, the “proportions of CD4 + and CD8 + T lymphocytes” value in [4] was “significantly higher than that in the LL-37-treated group and similar to that in the TP5-treated group”. For the same sequence, in assay [5], the “serum IgA level” value is “significantly higher total serum IgA, IgG, and IgM levels than mice in the TP5- or LL-37-treated groups”; the “serum IgG level” value is “significantly higher total serum IgA, IgG, and IgM levels than mice in the TP5- or LL-37-treated groups”; the “serum IgM level” value was “significantly higher total serum IgA, IgG, and IgM levels than mice in the TP5- or LL-37-treated groups”. In assay [6], the “serum IL-1β level” value is recorded as “higher than those in the TP5- or LL-37-treated groups; also recorded: efficiently reversed the declines”, the “serum IL-6 level” value is listed as “higher than those in the TP5- or LL-37-treated groups; also recorded: efficiently reversed the declines” and the “serum TNF-α level” value is “higher than those in the TP5- or LL-37-treated groups; also recorded: efficiently reversed the declines”. Also, in assay [7] (setting [10]), the IL-1β secretion entry was “remarkable increases”, the IL-6 secretion result was “remarkable increases” and the TNF-α secretion entry is “remarkable increases”. Moreover, the “secretion of TNF-α, IL-6, and IL-1β (comparison between peptides)” value in assay [7] (vs the other peptides tested) is “significantly increased the secretion of TNF-α, IL-6, and IL-1β in comparison with the other peptides tested”. The “TNF-α, IL-6, and IL-1β production” value in assay [8] was “significantly caused increase levels of TNF-α, IL-6, and IL-1β”. Also, in assay [9], the spleen index entry is “significantly higher than those in the LL-37-treated and TP5-treated groups”; the thymus index result was “significantly higher than those in the LL-37-treated and TP5-treated groups”. For the same sequence, in assay [9] (CTX group vs control), the bodyweight result is “improved bodyweight rapidly; also recorded: significantly higher than that in the parental peptide (LL-37 and TP5)-treated groups”.

For the origin of these results see paper PMC7905067, “Design and Immunological Evaluation of a Hybrid Peptide as a Potent TLR2 Agonist by Structure-Based Virtual Screening” (Frontiers in Cell and Developmental Biology, 2021).
